The values below come from patent publication US20030195376A1, “Novel intermediate and processes for its preparation and conversion into a pharmacologically-active agent” (priority 2002, published 2003).

The test system of data set [1] is neuronal uptake of dopamine. The settings on record: relative to serotonin-norepinephrine uptake; cited from earlier work.
For data set [2] the following is noted: in vivo; cited from earlier work.
Data set [3] can be described thus: Solubility in solvents (product characteristics). The settings on record: in methanol. In kind it is physicochemical.
[4] abbreviates: ethanol, chloroform, dichloromethane, acetone, ethyl acetate, benzene, toluene and isopropyl alcohol.

Consider `COc1ccc(C(CN(C)C)C2(O)CCCCC2)cc1` (racemic) [formula (IX), (±)-1-[2-dimethylamino-1-(4-methoxy-phenyl)-ethyl]-cyclohexanol], for which the “inhibition of neuronal uptake of dopamine” value in data set [1] is on record as “to a lesser extent”. Further, the “effectiveness compared with standard antidepressants such as imipramine” value in data set [2] is “as effective as”.
As to `COc1ccc(C2(C#N)OC23CCCCC3)cc1` (stereo not shown) [formula (I), 2-(4-methoxy-phenyl)-1-oxa-spiro[2.5]octane-2-carbonitrile], the Solubility result in data set [3] (setting [4]) is reported as “Soluble in methanol, ethanol, chloroform, dichloromethane,”.
In the case of `COc1ccc(C(=O)C2(Br)CCCCC2)cc1` [formula (II), (1-bromo-cyclohexyl)-(4-methoxy-phenyl)-methanone], the Solubility result in data set [3] (setting [4]) is listed as “Soluble in methanol, ethanol, chloroform, dichloromethane,”.
In the case of `COc1ccc(C(=O)C2CCCCC2)cc1` [formula (III), cyclohexyl-(4-methoxy-phenyl)-methanone], in data set [3] (setting [4]), the Solubility entry is “Soluble in Methanol, ethanol, chloroform, dichloromethane,”.
For `COc1ccc(C(O)C2CCCCC2)cc1` (stereo not shown) [formula (V), cyclohexyl-(4-methoxy-phenyl)-methanol], the Solubility result in data set [3] (ethanol, chloroform, dichloromethane, acetone, ethyl acetate etc.) is recorded as “Soluble in methanol, ethanol, chloroform,”.
As to `COc1ccc(C(CN)C2(O)CCCCC2)cc1` (stereo not shown) [formula (X), 1-[2-amino-1-(4-methoxy-phenyl)-ethyl]-cyclohexanol], the Solubility result in data set [3] (chloroform and water) was “Soluble in methanol, chloroform and water”.
